In the supplement of paper PMC10307832:

Compound: CN1CCN(c2ccc3nc(-c4c(N)c5c(F)cccc5[nH]c4=O)[nH]c3c2)CC1 [Dovitinib]
Assay: relative viability (nuclei count vs DMSO), 5 days (fraction); higher = more cells survive
Summary of the method: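 Five library-drug doses, separated by factors of √10, were pinned into 1536-well plates holding lung cancer cell lines after an overnight stay at 37 °C. Cells were fixed, permeabilised and Hoechst-stained in one step after 5 days without medium change, then imaged at 4×. Viability compares treated-well with vehicle-well nuclei, counted in MetaXpress, as a median across plates. Passing plates had control CV below 25% and at least one doubling.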

| Cell Line | relative viability (0.02 µM) | relative viability (0.06325 µM) | relative viability (0.2 µM) | relative viability (0.6325 µM) | relative viability (2 µM) |
| --- | --- | --- | --- | --- | --- |
| 201T | 0.895 | 0.954 | 0.991 | 1.02 | 0.989 |
| A549 | 0.964 | 1.04 | 1.06 | 0.991 | 0.966 |
| A-427 | 0.918 | 0.901 | 1.06 | 1.06 | 1.05 |
| ABC-1 | 0.847 | 0.953 | 1.08 | 1.1 | 0.924 |
| BEN | 0.987 | 0.959 | 1.14 | 1.12 | 0.964 |
| CAL-12T | 1.07 | 1.02 | 1.02 | 0.99 | 1.1 |
| COR-L23 | 0.967 | 1.1 | 0.987 | 1.06 | 1.04 |
| COR-L 105 | 0.924 | 0.961 | 1.11 | 0.97 | 0.981 |
| Calu-6 | 0.977 | 1.01 | 0.999 | 0.981 | 0.959 |
| ChaGo-K-1 | 0.961 | 1.06 | 0.97 | 1.02 | 0.995 |
| EBC-1 | 1.08 | 0.997 | 1.06 | 0.975 | 1.06 |
| EKVX | 1.01 | 0.983 | 1.05 | 1.04 | 1.01 |
| EMC-BAC-2 | 1.06 | 0.952 | 0.994 | 1.01 | 1.02 |
| EPLC-272H | 0.942 | 0.955 | 0.976 | 0.913 | 0.928 |
| H3255 | 0.955 | 1.02 | 0.997 | 1.01 | 1.06 |
| HARA | 1.29 | 0.948 | 1 | 1.25 | 1.01 |
| HCC-15 | 1.05 | 0.961 | 1.07 | 1.03 | 1 |
| HCC-44 | 0.979 | 0.98 | 0.991 | 1 | 1.03 |
| HCC-78 | 1.02 | 0.809 | 1.05 | 1.04 | 0.952 |
| HCC-366 | 0.989 | 0.978 | 0.993 | 0.973 | 0.982 |
| HCC-827 | 1.05 | 1.01 | 1.05 | 1.1 | 1.03 |
| HOP-62 | 0.907 | 1.03 | 1.03 | 1.06 | 1.04 |
| IA-LM | 0.864 | 1.02 | 0.962 | 0.989 | 0.873 |
| LC-2-ad | 0.977 | 0.966 | 0.965 | 0.983 | 0.98 |
| LCLC-97TM1 | 1.07 | 0.785 | 1.01 | 1 | 0.979 |
| LCLC-103H | 0.975 | 0.931 | 1.03 | 1.06 | 0.992 |
| LK-2 | 0.944 | 0.974 | 0.895 | 0.975 | 0.847 |

| Cell Line | relative viability (0.02 µM) | relative viability (0.06325 µM) | relative viability (0.2 µM) | relative viability (0.6325 µM) | relative viability (2 µM) |
| --- | --- | --- | --- | --- | --- |
| LOU-NH91 | 1.02 | 0.945 | 0.939 | 1.07 | 0.984 |
| LU99A | 0.911 | 0.944 | 0.971 | 0.97 | 1.04 |
| LXF-289 | 0.938 | 1.01 | 0.999 | 1.02 | 0.979 |
| NCI-H23 | 1.01 | 1.03 | 1.07 | 1.02 | 0.952 |
| NCI-H322M | 0.885 | 0.926 | 0.918 | 0.977 | 0.97 |
| NCI-H358 | 0.9 | 0.995 | 0.918 | 0.989 | 0.907 |
| NCI-H441 | 1.08 | 1.11 | 1.04 | 1.07 | 1.06 |
| NCI-H460 | 0.982 | 1.02 | 0.993 | 0.985 | 0.964 |
| NCI-H520 | 1.01 | 1.02 | 0.944 | 0.976 | 0.955 |
| NCI-H522 | 1 | 1.09 | 1.22 | 1.03 | 0.924 |
| NCI-H596 | 0.965 | 0.957 | 1 | 1.12 | 0.932 |
| NCI-H647 | 0.957 | 0.991 | 1.04 | 0.991 | 0.949 |
| NCI-H650 | 0.97 | 0.883 | 1 | 0.927 | 1.03 |
| NCI-H661 | 0.988 | 0.993 | 1.04 | 1.03 | 1.06 |
| NCI-H727 | 1.1 | 0.782 | 0.968 | 0.989 | 0.921 |
| NCI-H838 | 0.935 | 1 | 1.01 | 0.95 | 0.966 |
| NCI-H1299 | 0.966 | 1.03 | 1.03 | 0.98 | 1.03 |
| NCI-H1355 | 1.04 | 0.931 | 1.04 | 0.989 | 1.07 |
| NCI-H1395 | 0.99 | 0.849 | 0.959 | 0.827 | 1.15 |
| NCI-H1437 | 0.973 | 1.03 | 0.971 | 1.04 | 1.02 |
| NCI-H1563 | 1.01 | 1.07 | 0.97 | 1.05 | 1.08 |
| NCI-H1648 | 0.914 | 0.805 | 1.12 | 0.908 | 0.789 |
| NCI-H1650 | 0.949 | 0.998 | 0.987 | 0.93 | 1.05 |
| NCI-H1651 | 0.986 | 0.999 | 1.03 | 1.06 | 0.963 |
| NCI-H1666 | 1.2 | 1.09 | 1.09 | 1.01 | 1.01 |
| NCI-H1703 | 1.01 | 1.08 | 0.882 | 0.637 | 0.541 |
| NCI-H1734 | 0.928 | 0.974 | 0.934 | 0.963 | 0.984 |

| Cell Line | relative viability (0.02 µM) | relative viability (0.06325 µM) | relative viability (0.2 µM) | relative viability (0.6325 µM) | relative viability (2 µM) |
| --- | --- | --- | --- | --- | --- |
| NCI-H1755 | 1.04 | 1.02 | 1.01 | 0.998 | 1.02 |
| NCI-H1792 | 0.898 | 0.818 | 0.894 | 1.04 | 0.907 |
| NCI-H1793 | 1.07 | 0.977 | 1.02 | 1.09 | 1.01 |
| NCI-H1915 | 0.937 | 0.975 | 1 | 1.01 | 0.981 |
| NCI-H1944 | 0.94 | 0.94 | 1.08 | 1.02 | 1.01 |
| NCI-H1975 | 0.916 | 0.966 | 1.03 | 0.976 | 0.947 |
| NCI-H1993 | 1.21 | 0.863 | 1 | 0.988 | 1.07 |
| NCI-H2009 | 0.881 | 1.01 | 1.02 | 1.03 | 1.12 |
| NCI-H2023 | 0.94 | 0.969 | 1.11 | 1 | 0.926 |
| NCI-H2085 | 1 | 1.01 | 1.03 | 1.02 | 0.985 |
| NCI-H2087 | 0.981 | 0.982 | 1.05 | 1.18 | 1.05 |
| NCI-H2126 | 1.01 | 0.966 | 1.01 | 0.983 | 1.05 |
| NCI-H2170 | 0.868 | 1.01 | 1.04 | 0.982 | 0.946 |
| NCI-H2228 | 0.832 | 1.17 | 1.16 | 0.966 | 0.962 |
| NCI-H2342 | 1.12 | 0.992 | 1.1 | 1.04 | 1.01 |
| NCI-H2347 | 1.04 | 1.02 | 1.06 | 1.08 | 1.04 |
| NCI-H2405 | 0.96 | 0.969 | 1.06 | 1.03 | 1.16 |
| NCI-H3122 | 0.947 | 0.963 | 0.955 | 0.966 | 0.999 |
| PC-3 [JPC-3] | 1.1 | 0.962 | 1.04 | 1.07 | 1.08 |
| PC-14 | 1 | 1.01 | 1.03 | 1.03 | 1.04 |
| RERF-LC-KJ | 0.964 | 1.01 | 1.07 | 0.95 | 0.954 |
| SK-LU-1 | 0.991 | 1.09 | 1.08 | 1.08 | 1.11 |
| SK-MES-1 | 0.988 | 1.01 | 1.06 | 1.01 | 1.03 |
| SW 900 | 1.11 | 0.853 | 1.11 | 1.04 | 0.952 |
| SW 1573 | 1.05 | 0.992 | 1.01 | 0.947 | 1.07 |
| UMC-11 | 0.959 | 0.941 | 0.992 | 0.981 | 0.939 |
